Reference: BigSolDB 2.1

CCN(CC)CCNC(=O)c1c(C)[nH]c(/C=C2\C(=O)Nc3ccc(F)cc32)c1C.O=C(O)C[C@H](O)C(=O)O
Details	solubility (mole fraction)
in PEG-400, 298.2 K	0.00634
in PEG-400, 303.2 K	0.0076
in PEG-400, 308.2 K	0.00996
in PEG-400, 313.2 K	0.0129
in PEG-400, 318.2 K	0.0167

solubility (mole fraction)
Details	in ethanol	in ethylene glycol	in isopropanol	in propylene glycol	in transcutol	in water
298.2 K	0.00277	0.00104	0.00634	0.00179	0.00997	3.72e-06
303.2 K	0.00321	0.00139	0.0076	0.00228	0.0117	4.74e-06
308.2 K	0.00372	0.00186	0.00996	0.00303	0.0136	6.09e-06
313.2 K	0.0043	0.00244	0.0129	0.00385	0.0163	8.46e-06
318.2 K	0.00516	0.00313	0.0167	0.00483	0.0187	1.05e-05
